Assay results from the NIST ThermoML archive (doi:10.1021/je300799f).

Experiment: xn = mol fraction of the nth substance listed
Settings: 101 kPa, Liquid, Vibrating tube method

CCCC(=O)OCC [ethyl butanoate] + CCCCCCC
Settings	mass density [kg/m3]
288.15 K, x1 = 0.0502	696.39
288.15 K, x1 = 0.0918	703.35
288.15 K, x1 = 0.1473	712.8
288.15 K, x1 = 0.2022	722.42
288.15 K, x1 = 0.2465	730.35
288.15 K, x1 = 0.288	737.84
288.15 K, x1 = 0.3987	758.41
288.15 K, x1 = 0.4488	767.94
288.15 K, x1 = 0.5008	778.03
288.15 K, x1 = 0.5456	786.84
288.15 K, x1 = 0.6023	798.22
288.15 K, x1 = 0.6584	809.63
288.15 K, x1 = 0.6999	818.26
288.15 K, x1 = 0.7486	828.54
288.15 K, x1 = 0.8042	840.42
288.15 K, x1 = 0.8481	850.01
288.15 K, x1 = 0.901	861.58
288.15 K, x1 = 0.9347	869.11
288.15 K, x1 = 0.9527	873.2
288.15 K, x1 = 1	884.01
298.15 K, x1 = 0.0522	688.18
298.15 K, x1 = 0.0904	694.54
298.15 K, x1 = 0.1404	703.05
298.15 K, x1 = 0.1901	711.58
298.15 K, x1 = 0.2539	722.68
298.15 K, x1 = 0.2962	730.22
298.15 K, x1 = 0.3543	740.87
298.15 K, x1 = 0.4	749.31
298.15 K, x1 = 0.443	757.44
298.15 K, x1 = 0.5517	778.51
298.15 K, x1 = 0.6018	788.45
298.15 K, x1 = 0.648	797.84
298.15 K, x1 = 0.6976	808.02
298.15 K, x1 = 0.7463	818.17
298.15 K, x1 = 0.7884	827.06
298.15 K, x1 = 0.8473	839.64
298.15 K, x1 = 0.9054	852.26
298.15 K, x1 = 0.9524	862.74
298.15 K, x1 = 1	873.5
308.15 K, x1 = 0.0461	678.42
308.15 K, x1 = 0.0952	686.44
308.15 K, x1 = 0.1445	694.69
308.15 K, x1 = 0.2034	704.7
308.15 K, x1 = 0.2497	712.78
308.15 K, x1 = 0.3081	723.17
308.15 K, x1 = 0.3441	729.57
308.15 K, x1 = 0.406	741.01
308.15 K, x1 = 0.4563	750.35
308.15 K, x1 = 0.5053	759.76
308.15 K, x1 = 0.5505	768.46
308.15 K, x1 = 0.6038	778.99
308.15 K, x1 = 0.6498	788.17
308.15 K, x1 = 0.7026	798.87
308.15 K, x1 = 0.7544	809.6
308.15 K, x1 = 0.788	816.69
308.15 K, x1 = 0.8424	828.13
308.15 K, x1 = 0.9009	840.82
308.15 K, x1 = 0.9512	851.86
308.15 K, x1 = 1	862.85
318.15 K, x1 = 0.0532	670.78
318.15 K, x1 = 0.095	677.56
318.15 K, x1 = 0.1397	684.91
318.15 K, x1 = 0.2087	696.59
318.15 K, x1 = 0.2565	704.87
318.15 K, x1 = 0.3048	713.3
318.15 K, x1 = 0.3608	723.3
318.15 K, x1 = 0.4046	731.26
318.15 K, x1 = 0.4532	740.3
318.15 K, x1 = 0.5065	750.34
318.15 K, x1 = 0.5517	759.04
318.15 K, x1 = 0.6007	768.46
318.15 K, x1 = 0.6492	778.12
318.15 K, x1 = 0.6934	787.02
318.15 K, x1 = 0.739	796.28
318.15 K, x1 = 0.7947	807.72
318.15 K, x1 = 0.8554	820.65
318.15 K, x1 = 0.8861	827.23
318.15 K, x1 = 0.9515	841.48
318.15 K, x1 = 1	852.26
328.15 K, x1 = 0.0535	662.06
328.15 K, x1 = 0.0975	669.12
328.15 K, x1 = 0.1485	677.41
328.15 K, x1 = 0.1785	682.4
328.15 K, x1 = 0.2367	692.21
328.15 K, x1 = 0.3034	703.69
328.15 K, x1 = 0.359	713.56
328.15 K, x1 = 0.4538	730.76
328.15 K, x1 = 0.5087	741
328.15 K, x1 = 0.5511	749.04
328.15 K, x1 = 0.6093	760.27
328.15 K, x1 = 0.6471	767.65
328.15 K, x1 = 0.6967	777.52
328.15 K, x1 = 0.739	786.07
328.15 K, x1 = 0.7999	798.54
328.15 K, x1 = 0.8397	806.83
328.15 K, x1 = 0.9086	821.54
328.15 K, x1 = 0.9533	831.27
328.15 K, x1 = 1	841.55
